Experimental data taken from publication PMC2010749, “Cytotoxic and clastogenic effects of soluble and insoluble compounds containing hexavalent and trivalent chromium” (British Journal of Cancer, 1981).
Read-outs that look alike come from different tables or passages of the source.

What was measured:
[1] = tested on: BHK 21 Syrian hamster fibroblast line; test: Cell growth of BHK cultures (DNA + RNA content), Cr compounds added directly to medium; format: cell-based; conditions: 48 h in MEM; 0.5/0.15/0.05 mg/ml (one value for all three)
Description: (§1) Cell growth and labelling.-The reduction in cell growth, based on the nucleic acid content (DNA + RNA) of treated cultures, and the inhibition of DNA, RNA and protein syn- thesis, based on the incorporation of labelled precursors, were determined, to evaluate the cytotoxic effects of Cr compounds in BHK cell cultures. […] Three to four thousand cells were then examined for each dose level and each time interval, and the mitotic index (the ratio of all mitoses to the total number of cells) and the frequencies of each mitotic phase (the ratios of cells in each phase to total mitoses) were determined. […] Chromium compounds and cell treatments.- The tested compounds of Cr(VI) and Cr(III) and their physico-chemical properties are listed in Table I. In many experiments in which most of them were highly insoluble or only partially soluble (see Tables I, IV, V), Cr compounds were directly suspended in the growth medium used for treatments. In the experiments on the induction of chromosome aberrations and SCE in CHO cells, almost complete solubilization was obtained in N HCI for Cr(III) compounds and 0-5N NaOH for Cr(VI) compounds, after which they were diluted with MEM to the final concentrations specified in Table IX. […] The cytotoxic and clastogenic effects were usually deter- mined just at the end of Cr treatments, but sometimes the treated cells were washed with HBSS and incubated with normal growth medium, so that the effects of Cr were deter- mined at different times after the end of treatment (see Fig. 3 and Table VII).

[2] = tested on: BHK 21 Syrian hamster fibroblast line; test: DNA, RNA and protein syntheses in BHK cells, Cr compounds added directly to medium; format: cell-based; conditions: 48 h in MEM; 0.5/0.15/0.05 mg/ml (one value for all three)
Description: (§2) Cell growth and labelling.-The reduction in cell growth, based on the nucleic acid content (DNA + RNA) of treated cultures, and the inhibition of DNA, RNA and protein syn- thesis, based on the incorporation of labelled precursors, were determined, to evaluate the cytotoxic effects of Cr compounds in BHK cell cultures. […] Three to four thousand cells were then examined for each dose level and each time interval, and the mitotic index (the ratio of all mitoses to the total number of cells) and the frequencies of each mitotic phase (the ratios of cells in each phase to total mitoses) were determined. […] Chromium compounds and cell treatments.- The tested compounds of Cr(VI) and Cr(III) and their physico-chemical properties are listed in Table I. In many experiments in which most of them were highly insoluble or only partially soluble (see Tables I, IV, V), Cr compounds were directly suspended in the growth medium used for treatments. […] The cytotoxic and clastogenic effects were usually deter- mined just at the end of Cr treatments, but sometimes the treated cells were washed with HBSS and incubated with normal growth medium, so that the effects of Cr were deter- mined at different times after the end of treatment (see Fig. 3 and Table VII).

[3] = tested on: BHK 21 Syrian hamster fibroblast line; test: DNA, RNA and protein syntheses in BHK monolayers exposed to filtered medium preincubated with Cr compounds; format: cell-based; conditions: cells exposed 24 h;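 note: DNA, RNA and protein synthesis in BHK cultures assessed by incorporation of labelled precursors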
Description: as §2

[4] = tested on: CHO Chinese hamster fibroblast line; test: Cell growth of CHO cultures (DNA + RNA content); format: cell-based; conditions: 32 h in MEM; 0.3 µg/ml
Description: as §2

[5] = tested on: BHK 21 Syrian hamster fibroblast line; conditions: range in 4 experiments
Description: as §2

[6] = tested on: HEp-2 human epithelial-like line; conditions: 2 h exposure to medium preincubated 2 days with 0.5 mg/ml in presence of BHK cells
Description: as §2

[7] = tested on: CHO Chinese hamster fibroblast line; conditions: 0.1 µg/ml water-soluble Cr(VI) (0.3 µg/ml of salt)
Description: Cell growth and labelling.-The reduction in cell growth, based on the nucleic acid content (DNA + RNA) of treated cultures, and the inhibition of DNA, RNA and protein syn- thesis, based on the incorporation of labelled precursors, were determined, to evaluate the cytotoxic effects of Cr compounds in BHK cell cultures. […] Three to four thousand cells were then examined for each dose level and each time interval, and the mitotic index (the ratio of all mitoses to the total number of cells) and the frequencies of each mitotic phase (the ratios of cells in each phase to total mitoses) were determined. […] Chromium compounds and cell treatments.- The tested compounds of Cr(VI) and Cr(III) and their physico-chemical properties are listed in Table I. In many experiments in which most of them were highly insoluble or only partially soluble (see Tables I, IV, V), Cr compounds were directly suspended in the growth medium used for treatments. In the experiments on the induction of chromosome aberrations and SCE in CHO cells, almost complete solubilization was obtained in N HCI for Cr(III) compounds and 0-5N NaOH for Cr(VI) compounds, after which they were diluted with MEM to the final concentrations specified in Table IX. […]

[8] = Solubility of chromium compounds (Table I)
Description: as §1

[9] = preincubated 48 h with 0.05 mg/ml
[10] = preincubated 48 h with 0.15 mg/ml
[11] = preincubated 48 h with 0.5 mg/ml

Compound: [K+].[K+].[O]=[Cr](=[O])([O-])[O][Cr](=[O])(=[O])[O-] [Potassium dichromate]
- Cell growth [1]: 0 % of controls
- DNA synthesis [2]: 0 % of controls
- Protein synthesis [2]: 0 % of controls
- RNA synthesis [2]: 0 % of controls
- DNA synthesis, preinc. in MEM [3, 9]: 24 % of controls
- DNA synthesis, preinc. in MEM+BHK [3, 9]: 35 % of controls
- Protein synthesis, preinc. in MEM [3, 9]: 100 % of controls
- Protein synthesis, preinc. in MEM+BHK [3, 9]: 100 % of controls
- RNA synthesis, preinc. in MEM [3, 9]: 90 % of controls
- RNA synthesis, preinc. in MEM+BHK [3, 9]: 100 % of controls
- DNA synthesis, preinc. in MEM [3, 10]: 4 % of controls
- DNA synthesis, preinc. in MEM+BHK [3, 10]: 16 % of controls
- Protein synthesis, preinc. in MEM [3, 10]: 68 % of controls
- Protein synthesis, preinc. in MEM+BHK [3, 10]: 100 % of controls
- RNA synthesis, preinc. in MEM [3, 10]: 42 % of controls
- RNA synthesis, preinc. in MEM+BHK [3, 10]: 64 % of controls
- DNA synthesis, preinc. in MEM [3, 11]: 4 % of controls
- DNA synthesis, preinc. in MEM+BHK [3, 11]: 7 % of controls
- Protein synthesis, preinc. in MEM [3, 11]: 52 % of controls
- Protein synthesis, preinc. in MEM+BHK [3, 11]: 69 % of controls
- RNA synthesis, preinc. in MEM [3, 11]: 39 % of controls
- RNA synthesis, preinc. in MEM+BHK [3, 11]: 49 % of controls
- Cell growth [4]: 83 % control
- Length of treatment giving 50% inhibition of RNA synthesis ([5]; K2Cr2O7 10 µg/ml in HBSS): 1 to 2 h
- Length of treatment giving 50% inhibition of protein synthesis ([5]; K2Cr2O7 10 µg/ml in HBSS): 3 to 5 h
- Length of treatment giving > 90% inhibition of DNA synthesis ([5]; K2Cr2O7 10 µg/ml in HBSS): 2 to 3 h
- Length of treatment giving > 90% inhibition of RNA synthesis ([5]; K2Cr2O7 10 µg/ml in HBSS): 6 to 7 h
- Length of treatment giving > 90% inhibition of protein synthesis ([5]; K2Cr2O7 10 µg/ml in HBSS): 8 to 10 h
- Length of treatment giving 50% inhibition of DNA synthesis ([5]; K2Cr2O7 10 µg/ml in MEM): 0.5 to 1.0 h
- Length of treatment giving 50% inhibition of RNA synthesis ([5]; K2Cr2O7 10 µg/ml in MEM): 2 to 4 h
- Length of treatment giving 50% inhibition of protein synthesis ([5]; K2Cr2O7 10 µg/ml in MEM): 5 to 9 h
- Length of treatment giving > 90% inhibition of DNA synthesis ([5]; K2Cr2O7 10 µg/ml in MEM): 2 to 3 h
- Length of treatment giving > 90% inhibition of RNA synthesis ([5]; K2Cr2O7 10 µg/ml in MEM): > 10 h
- Length of treatment giving > 90% inhibition of protein synthesis ([5]; K2Cr2O7 10 µg/ml in MEM): > 10 h
- Length of treatment giving 50% inhibition of DNA synthesis ([5]; K2Cr2O7 100 µg/ml in MEM): 0 to 25 h
- Length of treatment giving 50% inhibition of protein synthesis ([5]; K2Cr2O7 100 µg/ml in MEM): 1 to 3 h
- Length of treatment giving > 90% inhibition of DNA synthesis ([5]; K2Cr2O7 100 µg/ml in MEM): 0 to 75 h
- Length of treatment giving > 90% inhibition of RNA synthesis ([5]; K2Cr2O7 100 µg/ml in MEM): 5 to 7 h
- Length of treatment giving > 90% inhibition of protein synthesis ([5]; K2Cr2O7 100 µg/ml in MEM): 6 to 10 h
- Mitotic block (% increase of abnormal metaphases 2-4 h after treatment) [6]: +++ (+ + + (> 100%))
- Mitotic inhibition, early (% reduction of normal prophases at the end of treatment) [6]: +++ (+ + + (> 70%))
- Mitotic inhibition, late (% reduction of normal prophases 24 h after treatment) [6]: +++ (+ + + (> 70%))
- Caryological alterations ([6]; grades not defined): ~+
- Mean number of chromosome aberrations relative to control [7]: 2-3 times the control values
- Solubility in water [8]: High
